Data taken from patent US20030055018A1, “Modulation of phosphoinositide 3-kinase activity” (priority 2001, published 2003).

Experiments:
[1] = test system: HaCaT cells; test: Suspension survival assay of HaCaT keratinocytes; format: cell-based, human
Method: FIG. 8 is presented to complementary roles of tyrosine kinase and small GTPase signals induced by integrin or growth factor stimulation, in PI3K/Akt activation and cell survival. […] Akt kinase activity in cell lysates harvested 30 minutes later was measured by in vitro phosphorylation of H2B. […] HaCaT cells or HaCaT cells stably-expressing activated H-Ras G12V were cultured on 0.9% agarose in MCDB base medium. EGF was used at 2 nM concentration in the indicated culltures. Cell aliquots were removed after 6 hours in suspension for immunoblot analysis. Cell viability was examined after 10 days in suspension as described (Jost et al., 2001, Mol Biol Cell 12, 1519-27). (C) A model of PI3K activation by tyrosine kinase- and small GTPase signals. According to this model, p85 binds, via its cSH2 motif, tyrosine phosphorylated proteins and undergoes phosphorylation at Y688. Phosphorylation at this site, functionally inactivates the p85 inhibitory domain. Neutralization of the inhibitory domain renders p85 responsive to PI3K activation signals that are transduced by small GTPases.
These experiments were carried out in serum-free define media. The constitutively-active H-Ras G12V activates the PI3K/Akt pathway and rescues cells from anoikis only in suspension cultures supplemented with epidermal growth factor (EGF) (FIG. 8B). […] Thus, PI3K/Akt activation and inhibition of anoikis depend on the combination of tyrosine kinase and small GTPase signals.
Suspension survival assay were performed as previously described (Jost et al., 2001, Mol Biol Cell 12, 1519-27). […] Cell viability was measured after 10 days in suspension. Cell viability was analysed by crystal violet staining of cells reseeded after 10 days of suspension culture onto tissue culture-treated plastic and allowed to grow for 3 days. […]

[2] = test system: PI3K; test: PtdIns-3,4,5-P3 measured by thin layer chromatography in lipid extracts of 32P-labeled transfected NIH3T3 cells; format: cell-based, mouse; details: construct co-transfected with constitutively-active H-Ras G12V; serum-free; 32P-orthophosphate 1.5 h
Method: In FIG. 1, it is shown that p85 inhibits while p85Δonc enhances PI3K activation by small GTPases. (A) Schematic diagrams and expression of transiently transfected HA-tagged p85-WT and p85Δonc constructs. (B) Upper panel. p85-WT inhibits while p85Δonc enhances HRas-induced PtdIns-3, 4, 5-P3 production. The indicated constructs were transiently transfected into NIH3T3 cells. Sixteen hours after transfection, the cells were cultured in serum-free media. Five hours later, they were labeled with ^32P-orthophosphate for 1.5 hours. Total phospholipids were analyzed by thin layer chromatography. (B) Lower panel. p85-WT inhibits while p85Δonc enhances H-Ras induced Akt phosphorylation. Immunoblots of cell extracts from duplicate transfections were probed with an antibody that recognizes Akt phosphorylated at Thr308 or with antibodies that recognize the proteins expressed from the transfected constructs. […] NIH3T3 cells were transiently transfected with the indicated constructs. ^32P-labeled PtdIns-3, 4, 5-P3 was measured as described in B. Akt phosphorylation at Thr308 and expression of transfected constructs were determined by probing immunoblots with the corresponding antibodies. […]
PtdIns-3, 4, 5-P3 was measured in lipid extracts of ^32P-labeled NIH3T3 cells by thin layer chromatography (Maehama et al., 1998, J Biol Chem 273, 13375-8). […]

[3] = test system: PI3K/Akt pathway; test: Akt activation in transfected NIH3T3 cells (H2B phosphorylation by immunoprecipitated FLAG-Akt, or Akt Thr308 immunoblot); format: cell-based, mouse
Text: Specifically, to show whether membrane-associated full-length p85 is functionally similar to the carboxy-terminally truncated protein the p85 fused at its amino-terminus to a peptide encoding the Src myristoylation signal (Myrp85-WT) (FIG. 2A), was transiently expressed in NIH3T3 cells in combination with FLAG-Akt or FLAG-Akt plus H-Ras. Myrp85Δonc was used as a control. The cells were lysed forty-eight hours later, following overnight serum starvation. Akt activation in this, and subsequent experiments, was determined by measuring the phosphorylation of histone 2B (H2B) by immunoprecipitated Akt.
Akt/PKB activation by phosphorylation strictly depends on the binding of the Akt PH domain to PtdIns-3,4,5-P3 and therefore, indirectly measures intracellular PtdIns-3,4,5-P3 levels (Chan et al., 1999, Ann Rev Biochem 68, 965-1015). Akt/PKB kinase activation was determined either by measuring the phosphorylation of Akt at Thr308 using an antibody from Cell Signaling Technology or by measuring the kinase activity of immunoprecipitated FLAG-tagged wild type Akt. The activity of immunoprecepitated Akt was measured using Histone 2B as the substrate, and following previously described protocols (Bellacosa et al., 1998, Oncogene 17, 313-25; Franke et al., 1995, Cell 81, 727-736) with slight modifications. Briefly, cells were lysed on ice using a NP40 lysis buffer (25 mM Tris-HCl pH 7.6, 137 mM NaCl, 10% glycerol, 1% NP40, 10 mM NaF) freshly supplemented with 1 mM Sodium pyrophosphate, 5 μg/ml leupeptin, 5 μg/ml aprotinin, 1 mM EDTA, 10 mM PMSF, 1 mM NaVO4 and 1 mM DTT. […] The phosphorylated Histone H2B was visualized by autoradiography and quantitated by Phosphorlmager (Molecular Dynamics). Akt expression was determined by probing the membranes with a polyclonal rabbit anti-Akt antibody.
Specific Akt kinase activity was determined by Phosphorimager-quantitation of the ^32P-phosphorylated Akt substrate Histone 2B, and by quantification of Akt in anti-Akt immunoprecipitates using a laser densitometry scanner (Molecular Dynamics). […]

| Substance | Long-term cell survival (10 days) in suspension, cells expressing activated H-Ras G12V ([1]; EGF 2 nM, serum-free defined medium) | Rescue from anoikis, HaCaT cells without H-Ras G12V ([1]; EGF alone, 2 nM) | PI3K/Akt activation, HaCaT cells without H-Ras G12V ([1]; EGF alone, 2 nM, 6 hours in suspension) | H-Ras-induced PtdIns-3, 4, 5-P3 production [2] | PI3K activation by Ras signals in the presence of NM-Src ([3]; H-Ras-G12V plus NM-Src, PtdIns-3,4,5-P3 and Akt Thr308) | H-Ras induced Akt phosphorylation at Thr308 ([3]; co-transfected with H-Ras G12V, immunoblot) | PI3K/Akt activation by H-Ras (Akt kinase activity, H2B phosphorylation) ([3]; co-transfected with constitutively-active H-Ras and FLAG-Akt, overnight serum starvation) |
| --- | --- | --- | --- | --- | --- | --- | --- |
| epidermal growth factor (NSDSECPLSHDGYCLHDGVCMYIEALDKYACNCVVGYIGERCQYRDLKWWELR; Epidermal growth factor; UniProt P01133 971-1023, looked up) [EGF] | cooperate to support long-term cell survival | failed to rescue | inefficient |  |  |  |  |
| p85-WT: HA-tagged construct of wild-type p85, regulatory subunit of PI3K |  |  |  | inhibits | does not inhibit | inhibits | blocks |
